The numbers were not newly measured in paper PMC4220649 (Blood Cancer Journal, 2014), which cites them from elsewhere.

For this series, the system named is patients with relapsed or refractory MM. Particulars: cited from earlier work.

Regarding `CC(C)C[C@H](NC(=O)CNC(=O)c1cc(Cl)ccc1Cl)B(O)O` [ixazomib], under “weekly oral ixazomib in MM”, the “Any-grade drug-related PN, patients” value was 20% and the “Drug-related grade 3 PN, patients” value is on record as 2%. Besides, the “Rate of drug-related AEs in the Skin and subcutaneous tissue disorders System Organ Class” value (weekly oral ixazomib, relapsed or refractory MM) is given as 22%.
